Laboratory results from ChEMBL document CHEMBL4840359, “N-Terminus to Arginine Side-Chain Cyclization of Linear Peptidic Neuropeptide Y Y4 Receptor Ligands Results in Picomolar Binding Constants” (J Med Chem, 2021).
Residues, ends and D or L forms follow the SMILES beside them.

How the values were obtained:
[1] = Stability in human plasma assessed as intact peptide measured after 1 hr at 37 degC by RP-HPLC analysis; type: ADME, cell-free; settings: read-out: Stability
[2] = Stability in human plasma assessed as intact peptide measured after 6 hr at 37 degC by RP-HPLC analysis; type: ADME, cell-free; settings: read-out: Stability
[3] = Stability in human plasma assessed as half life at 37 degC by RP-HPLC analysis; type: ADME, cell-free
[4] = Stability in human plasma assessed as intact peptide measured after 2 hr at 37 degC by RP-HPLC analysis; type: ADME, cell-free; settings: read-out: Stability
[5] = Stability in human plasma assessed as intact peptide measured after 30 mins at 37 degC by RP-HPLC analysis; type: ADME, cell-free; settings: read-out: Stability
[6] = biological target: T1, Neuropeptide Y receptor type 2 (Homo sapiens, UniProt P49146); assay: Displacement of [3H]UR-MK299 from human neuropeptide Y Y2 receptor expressed in CHO cells measured after 90 mins by scintillation counting analysis; type: cell-based
T1 sequence (P49146 whole entry): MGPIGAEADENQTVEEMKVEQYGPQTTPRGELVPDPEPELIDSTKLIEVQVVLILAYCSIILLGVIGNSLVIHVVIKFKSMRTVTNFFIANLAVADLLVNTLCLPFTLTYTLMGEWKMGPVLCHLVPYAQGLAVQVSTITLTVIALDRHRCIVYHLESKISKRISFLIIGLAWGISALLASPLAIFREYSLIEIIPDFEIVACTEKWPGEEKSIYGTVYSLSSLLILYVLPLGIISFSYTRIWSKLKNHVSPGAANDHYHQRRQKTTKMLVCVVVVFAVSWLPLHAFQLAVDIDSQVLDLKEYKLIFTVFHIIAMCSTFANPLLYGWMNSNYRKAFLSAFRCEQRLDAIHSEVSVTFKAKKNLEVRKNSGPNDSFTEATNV

[7] = biological target: T2, Neuropeptide Y receptor type 4 (Homo sapiens, UniProt P50391); assay: Intrinsic activity at human neuropeptide Y Y4 receptor expressed in HEK293T-ARRB2 cells assessed as stimulation of beta-arrestin 2 recruitment by multimode plate reader relative to hPP; type: functional, cell-based
T2 sequence (P50391 whole entry): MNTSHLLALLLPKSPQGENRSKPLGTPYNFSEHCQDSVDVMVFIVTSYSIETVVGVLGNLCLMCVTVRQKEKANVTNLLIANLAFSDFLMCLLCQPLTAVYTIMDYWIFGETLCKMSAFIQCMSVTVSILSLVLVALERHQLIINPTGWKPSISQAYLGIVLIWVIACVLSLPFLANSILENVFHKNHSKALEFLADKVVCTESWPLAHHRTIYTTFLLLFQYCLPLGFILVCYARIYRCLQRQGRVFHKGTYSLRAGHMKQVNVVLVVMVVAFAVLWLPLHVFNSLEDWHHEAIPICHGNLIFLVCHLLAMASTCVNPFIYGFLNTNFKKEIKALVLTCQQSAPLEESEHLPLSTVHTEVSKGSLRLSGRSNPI

[8] = biological target: T3, Neuropeptide Y receptor type 5 (Homo sapiens, UniProt Q15761); assay: Displacement of [3H]propionyl-pNPY from human neuropeptide Y Y5 receptor in human HEC-1B cells measured after 90 mins by scintillation counting analysis; type: cell-based, HEC-1B cell line
T3 sequence (Q15761 whole entry): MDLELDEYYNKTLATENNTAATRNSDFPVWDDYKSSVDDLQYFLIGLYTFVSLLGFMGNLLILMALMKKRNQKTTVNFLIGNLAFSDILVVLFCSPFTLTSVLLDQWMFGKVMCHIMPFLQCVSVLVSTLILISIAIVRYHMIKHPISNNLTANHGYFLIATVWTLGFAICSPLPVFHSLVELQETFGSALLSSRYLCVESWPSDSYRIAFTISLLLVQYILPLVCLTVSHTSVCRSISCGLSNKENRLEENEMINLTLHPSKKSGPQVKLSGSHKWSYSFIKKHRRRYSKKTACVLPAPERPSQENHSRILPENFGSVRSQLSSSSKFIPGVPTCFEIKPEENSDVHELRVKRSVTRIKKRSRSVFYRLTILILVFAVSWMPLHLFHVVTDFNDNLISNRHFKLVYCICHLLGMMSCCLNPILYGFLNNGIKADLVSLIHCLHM

[9] = biological target: T2, Neuropeptide Y receptor type 4; assay: Agonist activity at human neuropeptide Y Y4 receptor expressed in HEK293T-ARRB2 cells assessed as stimulation of beta-arrestin 2 recruitment by multimode plate reader; type: functional, cell-based
[10] = biological target: T4, Neuropeptide Y receptor type 1 (Homo sapiens, UniProt P25929); assay: Displacement of [3H]UR-MK299 from human neuropeptide Y Y1 receptor in human SK-N-MC cells measured after 90 mins by scintillation counting analysis; type: cell-based
T4 sequence (P25929 whole entry): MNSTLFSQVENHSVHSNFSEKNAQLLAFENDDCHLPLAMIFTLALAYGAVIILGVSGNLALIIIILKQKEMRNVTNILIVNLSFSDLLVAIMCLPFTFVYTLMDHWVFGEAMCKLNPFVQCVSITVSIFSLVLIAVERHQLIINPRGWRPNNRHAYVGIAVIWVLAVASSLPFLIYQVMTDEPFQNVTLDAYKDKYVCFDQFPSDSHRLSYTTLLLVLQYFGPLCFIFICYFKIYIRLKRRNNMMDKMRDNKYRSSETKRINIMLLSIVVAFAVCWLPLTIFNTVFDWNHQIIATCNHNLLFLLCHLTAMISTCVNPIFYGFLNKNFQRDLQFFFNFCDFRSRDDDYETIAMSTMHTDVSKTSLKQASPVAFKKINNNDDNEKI

[11] = organism: Homo sapiens; assay: Selectivity ratio, Ki for displacement of [3H]UR-MK299 from human neuropeptide Y Y1 receptor in human SK-N-MC cells measured after 90 mins by scintillation counting analysis to Ki for displacement of [3H]UR-KK200 from human neuropeptide Y Y4 receptor expressed in CHO-mtAEQ cells co-expressing Gqi5 measured after 90 mins by scintillation counting analysis; type: cell-based
[12] = biological target: T2, Neuropeptide Y receptor type 4; assay: Agonist activity at human neuropeptide Y Y4 receptor expressed in CHO-mtAEQ cells co-expressing Gqi5 by calcium aequorin assay; type: functional, cell-based
[13] = biological target: T2, Neuropeptide Y receptor type 4; assay: Displacement of [3H]UR-KK200 from human neuropeptide Y Y4 receptor expressed in CHO-mtAEQ cells co-expressing Gqi5 measured after 90 mins by scintillation counting analysis; type: cell-based
[14] = organism: Homo sapiens; assay: Selectivity ratio, Ki for displacement of [3H]UR-MK299 from human neuropeptide Y Y2 receptor expressed in CHO cells measured after 90 mins by scintillation counting analysis to Ki for displacement of [3H]UR-KK200 from human neuropeptide Y Y4 receptor expressed in CHO-mtAEQ cells co-expressing Gqi5 measured after 90 mins by scintillation counting analysis; type: cell-based
[15] = biological target: T2, Neuropeptide Y receptor type 4; assay: Intrinsic activity at human neuropeptide Y Y4 receptor expressed in CHO-mtAEQ cells co-expressing Gqi5 by calcium aequorin assay; type: functional, cell-based
[16] = biological target: T2, Neuropeptide Y receptor type 4; assay: Intrinsic activity at human neuropeptide Y Y4 receptor expressed in HEK293T-ARRB1 cells assessed as stimulation of beta-arrestin 1 recruitment by multimode plate reader relative to hPP; type: functional, cell-based
[17] = biological target: T2, Neuropeptide Y receptor type 4; assay: Agonist activity at human neuropeptide Y Y4 receptor expressed in HEK293T-ARRB1 cells assessed as stimulation of beta-arrestin 1 recruitment by multimode plate reader; type: functional, cell-based; settings: read-out: EC50
[18] = organism: Homo sapiens; assay: Selectivity ratio, Ki for displacement of [3H]propionyl-pNPY from human neuropeptide Y Y5 receptor in human HEC-1B cells measured after 90 mins by scintillation counting analysis to Ki for displacement of [3H]UR-KK200 from human neuropeptide Y Y4 receptor expressed in CHO-mtAEQ cells co-expressing Gqi5 measured after 90 mins by scintillation counting analysis; type: cell-based
[19] = biological target: T2, Neuropeptide Y receptor type 4; assay: Displacement of [3H]UR-KK200 from human neuropeptide Y Y4 receptor expressed in CHO-mtAEQ cells co-expressing Gqi5 assessed as fold change in affinity measured after 90 mins by scintillation counting analysis relative to Ac-Arg-Tyr-Arg-Leu-Arg-Tyr-NH2; type: cell-based; settings: filed as agonist
[20] = Stability in human plasma assessed as intact peptide in presence of rami-pril measured at 50 uM after 24 hrs at 37 degC by LC-HRMS analysis; type: ADME, cell-free
[21] = biological target: T2, Neuropeptide Y receptor type 4; assay: Intrinsic activity at human neuropeptide Y Y4 receptor expressed in HEK293T cells co-expressing CRE-controlled gene reporter firefly luciferase assessed as relative luminescence measured after 15 mins relative to hPP; type: functional, cell-based
[22] = biological target: T2, Neuropeptide Y receptor type 4; assay: Agonist activity at human neuropeptide Y Y4 receptor expressed in HEK293T cells co-expressing CRE-controlled gene reporter firefly luciferase assessed as relative luminescence measured after 15 mins; type: functional, cell-based
[23] = Stability of the compound in pH 7.4 PBS buffer measured up to 48 hrs by reversed-phase HPLC analysis; type: physicochemical; settings: pH 7.4, 48 h

SMILES	remaining at 1 h [1] [%]	remaining at 6 h [2] [%]	half-life [3] [h]	remaining at 2 h [4] [%]	remaining at 0.5 h [5] [%]	Ki ([6]; read-out: Ki) [µM]	Ki ([6]; read-out: pKi (converted)) [µM]	Intrinsic activity [7] [%]	Ki ([8]; read-out: pKi (converted)) [µM]	EC50 [9] [µM]	Ki ([10]; read-out: pKi (converted)) [µM]	Selectivity ratio [11]	EC50 [12] [µM]	Ki ([13]; read-out: Ki) [nM]	Selectivity ratio [14]	Intrinsic activity [15] [%]	Intrinsic activity [16] [%]	EC50 [17] [µM]	Selectivity ratio [18]	fold change (FC) [19]	also measured
CC(=O)N[C@@H](CCCNC(=N)N)C(=O)N[C@@H](Cc1ccc(O)cc1)C(=O)N[C@@H](CCCN/C(N)=N/C(=O)NCCCCN)C(=O)N[C@@H](CC(C)C)C(=O)N[C@@H](CCCNC(=N)N)C(=O)N[C@@H](Cc1ccc(O)cc1)C(N)=O (HELM PEPTIDE1{[ac].R.Y.[NCCCCNC(=O)/N=C(\N)NCCC[C@H](N[*:1])C(=O)[*:2]].L.R.Y.[am]}$$$$V2.0)	77	9	1.7	38	> 99																
CC(C)C[C@H](NC(=O)[C@@H]1CCCNC(=N)NC(=O)NCCCCNC(=O)CCC(=O)N[C@@H](CCCNC(=N)N)C(=O)N1)C(=O)N[C@@H](CCCNC(=N)N)C(=O)N[C@@H](Cc1ccc(O)cc1)C(N)=O (HELM PEPTIDE1{R.[N=C(NCCC[C@H](N[*:1])C(=O)[*:2])N[*:3]].L.R.Y.[am]}|CHEM1{[O=C(CCC(=O)[*:1])NCCCCNC(=O)[*:2]]}$PEPTIDE1,CHEM1,1:R1-1:R1|PEPTIDE1,CHEM1,2:R3-1:R2$$$V2.0)						> 3	> 3.16	83	> 1000	0.0933	> 3.16	> 2100	0.363	1.4	> 2100	61	87	0.18	> 7100	2.4	Ki ([8]; read-out: Ki): > 10 µM; Ki ([10]; read-out: Ki): > 3 µM
CC(C)C[C@H](NC(=O)[C@@H]1CCCNC(=N)NC(=O)NCCCCNC(=O)CCC(=O)N[C@@H](CCCNC(=N)N)C(=O)N[C@@H](Cc2c[nH]c3ccccc23)C(=O)N1)C(=O)N[C@@H](CCCNC(=N)N)C(=O)N[C@@H](Cc1ccc(O)cc1)C(N)=O	87	19	2.6	57	94	> 10	> 10	80	> 1	0.00166	> 10	> 300000	0.001	0.033	> 300	84	98	0.001	> 90000	103	Stability [20]: Stable; Ki ([8]; read-out: Ki): > 3 µM; Ki ([10]; sk-n-mc, read-out: Ki): > 10 µM; Intrinsic activity [21]: 95%; EC50 [22]: 0.00141 µM; Stability [23]: Stable
CC(C)C[C@H](NC(=O)[C@H](CCCNC(=N)NC(=O)NCCCN)NC(=O)[C@H](Cc1ccc(O)cc1)NC(=O)[C@H](CCCNC(=N)N)NC(=O)CCC(=O)O)C(=O)N[C@@H](CCCNC(=N)N)C(=O)N[C@@H](Cc1ccc(O)cc1)C(N)=O						> 10	> 10	71	> 10	0.129	> 10	> 15000	0.178	0.66	> 15000	65	61	0.05	> 15000	5.2	Ki ([8]; hec-1b cell line, read-out: Ki): > 10 µM; Ki ([13]; read-out: pKi (converted)): 0.646 nM
CC(C)C[C@H](NC(=O)[C@@H]1CCCNC(=N)NC(=O)NCCCCNC(=O)CCC(=O)N[C@@H](CCCNC(=N)N)C(=O)N[C@@H](Cc2ccc(O)cc2)C(=O)N1)C(=O)N[C@@H](CCCNC(=N)N)C(=O)N[C@@H](Cc1ccc(O)cc1)C(N)=O	85	3	1.9	52	> 99	> 10	> 10	73	> 1	0.00158	> 3.16	> 60000	0.00269	0.048	> 200	82	68	0.0036	> 60000	71	Stability [20]: Stable; Ki ([8]; read-out: Ki): > 3 µM; Ki ([10]; read-out: Ki): > 3 µM; Intrinsic activity [21]: 89%; Ki ([13]; read-out: pKi (converted)): 0.0437 nM; Stability [23]: Stable
